Reference: patent publication US10570179B2, “Substituted urea depsipeptide analogs as activators of the CLPP endopeptidase” (priority 2016, dated 2020)
Numbered stars: 1 amine (or outer) side, 2 acyl side, 3 side chain; on linkers, the order of the positions; unused ones are H or OH. Bridge positions count the residues as written; N and C are the ends. Square brackets hold non-standard residues; d marks the D form. Peptide text beside a SMILES is read from it. * marks the point of attachment. Piperazine(2S-CO,4-Me) = CN1CCN[C@H](C(=O)O)C1; Phe(3,5-Me2) = Cc1cc(C)cc(C[C@H](N)C(=O)O)c1; Phe(3-Me) = Cc1cccc(C[C@H](N)C(=O)O)c1; X4 = O=C1CN([*:1])[C@H](C(=O)[*:2])CN1; NH(4-Cl-2-F-phenyl) = Fc1cc(Cl)ccc1N*; Pro(4R-Me) = C[C@H]1CN[C@H](C(=O)O)C1; Hyp = O=C(O)[C@@H]1C[C@@H](O)CN1; NH(4-Me-phenyl) = Cc1ccc(N*)cc1; aThr = C[C@H](O)[C@H](N)C(=O)O; Pip = O=C(O)[C@@H]1CCCCN1; CO = O=C([*:1])[*:2]

What was measured:
Plasma stability assay [1] = type: in vitro ADME, human; details: for Human: 10 μM
Summary of the method: (§1)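 Compounds at 10 μM final in human or mouse plasma, incubated at 37 °C and sampled at 0, 3, 24 and 48 h in triplicate. Reactions quenched with cold acetonitrile containing warfarin internal standard; parent measured by LC-MS. Half-life from least-squares first-order fit.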

[2] = Microsomal metabolic stability; type: in vitro ADME, human
S. aureus ClpP (Sa-ClpP) = biological target: T1, S. aureus ClpP (Sa-ClpP) (Staphylococcus aureus, UniProt Q2G036); test: Casein-BODIPY digestion assay (ClpP activation); type: biochemical
T1 construct: made in house; host or cells: E. coli BL21 (DE3)
T1 sequence (Q2G036 whole entry): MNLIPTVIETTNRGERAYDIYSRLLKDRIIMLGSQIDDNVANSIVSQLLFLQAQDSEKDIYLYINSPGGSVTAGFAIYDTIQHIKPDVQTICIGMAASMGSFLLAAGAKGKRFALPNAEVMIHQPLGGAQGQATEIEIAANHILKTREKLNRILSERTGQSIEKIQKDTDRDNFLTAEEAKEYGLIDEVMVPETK

[3] = Microsomal metabolic stability; type: in vitro ADME, mouse
Summary of the method: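 CD-1 mouse liver microsomes (0.6381 mg/mL protein microsomal solution, 0.1 M potassium phosphate pH 7.4 with EDTA) were incubated with compound and an NADPH-regenerating system at 37 °C, in triplicate. Acetonitrile/warfarin quench at 0, 15, 30, 60, 120 and 240 min, then LCMS. Half-life came from a first-order least-squares fit.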

Plasma stability assay [4] = type: in vitro ADME, mouse; details: for Mouse: 10 μM
Summary of the method: as §1

Compound	Human (Plasma stability assay [1])	Human ([2]; human, pH 7.4)	EC50 (S. aureus ClpP (Sa-ClpP))	Mouse ([3]; CD-1, mouse, pH 7.4)	Mouse (Plasma stability assay [4])	Human (hr) (Plasma stability assay [1]; plasma stability half-life, human plasma, 37° C.)	Human ([2]; microsomal metabolic stability half-life, human liver microsomes)	Mouse ([3]; microsomal metabolic stability half-life, mouse liver microsomes)	Mouse (hr) (Plasma stability assay [4]; plasma stability half-life, mouse plasma, 37° C.)
Cc1cccc(C[C@H](NC(=O)Nc2ccc(Cl)cc2F)C(=O)N[C@@H]2C(=O)N3C[C@H](O)C[C@H]3C(=O)N3CCN(C)C[C@H]3C(=O)N[C@@H](C)C(=O)N3C[C@H](C)C[C@H]3C(=O)O[C@H]2C)c1 [Compound 31, (S)-2-(3-(4-CHLORO-2-FLUOROPHENYL)UREIDO)-N-((6AS,8R,12S,13S,15AS,17R,21S,23AS)-8-HYDROXY-2,13,17,21-TETRAMETHYL-6,11,15,20,23-PENTAOXOOCTADECAHYDRO-2H,6H,11H,15H-PYRAZINO[2,1-I]DIPYRROLO[2,1-C:2′,1′-L][1]OXA[4,7,10,13]TETRAAZACYCLOHEXADECIN-12-YL)-3-(M-TOLYL)PROPANAMIDE] ({NH(4-Cl-2-F-phenyl)-CO}-[Phe(3-Me)][aThr][Hyp][Piperazine(2S-CO,4-Me)]A[Pro(4R-Me)]; ester 2-C)	>50 h	3.87 ± .875 h	180 ± 180 nM	2.65 ± .655 h	>50 h	–	–	–	–
Cc1ccc(NC(=O)N[C@@H](Cc2cc(C)cc(C)c2)C(=O)N[C@@H]2C(=O)N3CCC[C@H]3C(=O)N3CCCC[C@H]3C(=O)N[C@@H](C)C(=O)N3C[C@H](C)C[C@H]3C(=O)O[C@H]2C)cc1 [Compound 2, (S)-3-(3,5-DIMETHYLPHENYL)-2-(3-(P-TOLYL)UREIDO)-N-((2R,6S,8AS,14AS,20S,21S,23AS)-2,6,21-TRIMETHYL-5,8,14,19,23-PENTAOXOOCTADECAHYDRO-1H,5H,14H,19H-PYRIDO[2,1-I]DIPYRROLO[2,1-C:2′,1′-L][1]OXA[4,7,10,13]TETRAAZACYCLOHEXADECIN-20-YL)PROPANAMIDE] ({NH(4-Me-phenyl)-CO}-[Phe(3,5-Me2)][aThr]P[Pip]A[Pro(4R-Me)]; ester 2-C)	–	–	870 ± 30 nM	–	–	>>48 hr	0.62 h	2.85 h	>>48 hr
Cc1cccc(C[C@H](NC(=O)Nc2ccc(Cl)cc2F)C(=O)N[C@@H]2C(=O)N3CCC[C@H]3C(=O)N3CC(=O)NC[C@H]3C(=O)N[C@@H](C)C(=O)N3C[C@H](C)C[C@H]3C(=O)O[C@H]2C)c1 [Compound 20, (S)-2-(3-(4-CHLORO-2-FLUOROPHENYL)UREIDO)-3-(M-TOLYL)-N-((6AS,12S,13S,15AS,17R,21S,23AS)-13,17,21-TRIMETHYL-3,6,11,15,20,23-HEXAOXOOCTADECAHYDRO-2H,6H,11H,15H-PYRAZINO[2,1-I]DIPYRROLO[2,1-C:2′,1′-L][1]OXA[4,7,10,13]TETRAAZACYCLOHEXADECIN-12-YL)PROPANAMIDE] ({NH(4-Cl-2-F-phenyl)-CO}-[Phe(3-Me)][aThr]P[X4]A[Pro(4R-Me)]; ester 2-C)	14.0 h	1.30 ± 0.09 h	710 ± 80 nM	6.24 ± 0.7 h	13.2 h	–	–	–	–
Cc1cccc(C[C@H](NC(=O)Nc2ccc3c(c2)OCO3)C(=O)N[C@H]2COC(=O)[C@@H]3C[C@@H](C)CN3C(=O)[C@H](C)NC(=O)[C@@H]3CCCCN3C(=O)[C@@H]3CCCN3C2=O)c1 [Compound 23, (S)-2-(3-(BENZO[D][1,3]DIOXOL-5-YL)UREIDO)-N-((2R,6S,8AS,14AS,20S,23AS)-2,6-DIMETHYL-5,8,14,19,23-PENTAOXOOCTADECAHYDRO-1H,5H,14H,19H-PYRIDO[2,1-I]DIPYRROLO[2,1-C:2′,1′-L][1]OXA[4,7,10,13]TETRAAZACYCLOHEXADECIN-20-YL)-3-(M-TOLYL)PROPANAMIDE]	>50 h	30.2 ± 11.7 h	350 ± 90 nM	35.8 ± 14.7 h	27.31 h	–	–	–	–
